Columns and labels:
hCA IX = hCA IX (Homo sapiens, UniProt Q16790); assay: hCA IX enzyme inhibition assay (4-NPA hydrolysis)
Description: (§4) Carbonic anhydrase can catalyze the hydrolysis of 4-nitrophenyl acetate (4-NPA). […] The experimental buffer consisted of 15 mmol/L 4-(2-hydroxyethyl)-1-piperazineethanesulfonic acid (HEPES) (pH = 7.40), 0.01% tetraethylene glycol monododecyl ether (Brij), and 100 mmol/L NaCl. […] Then, 18 μL of enzyme solution was transferred into 384-well plates in duplicate. Stock solutions of the inhibitors (10.0 mmol/L) were prepared using DMSO as solvent, and then diluted 1:3 with DMSO. […] Then 2.00 μL of each inhibitor was added to each well. All compounds were allowed to incubate with the enzyme for 15 min at 25 °C to form the Enzyme-Inhibitor (E-I) complex. After that, substrate 4-NPA (1.00 mmol/L, 20.00 μL, Sigma-Aldrich, St. Louis, MI, USA) was added into the E-I complex solution and incubated for 60, 90, 90 min at 25 °C, respectively.

[1] = system: human colon cancer HT-29 cells; assay: CCK-8 cell viability assay, HT-29; assay type: cell-based; conditions: HT-29, normoxic and hypoxic, 48 h, Figure 5
Description: (§1) The MDA-MB-231, HT-29 and MG-63 cell lines were provided by KeyGEN BioTECH Ltd (Nanjing, Jiangsu, China). The cells were digested and counted to prepare a cell suspension of 5.0 × 10^4 cells/mL, and then 100 μL of cell suspension was added to each well of the 96-well cell culture plate. The plates were placed in a 37 °C, 5% CO2 incubator (Corning Incorporated, Corning, New York, USA) for 24 h. The drug was diluted with the culture medium to the required concentration, ed100 μL of the corresponding drug-containing medium was added to each well, and a negative control group was set up at the same time. The 96-well cell culture plates were placed into a normoxic incubator (37 °C, 5% CO2) and hypoxic incubator (37 °C, 5% CO2, 0.5% O2, 94.5% N2) for 48 h. Finally, the 96-well plate was stained with CCK-8 and the OD value determined (λ = 450 nm).

hCA II = hCA II (Homo sapiens, UniProt P00918); assay: hCA II enzyme inhibition assay (4-NPA hydrolysis)
Description: as §4

HT-29 = assay: Extracellular pH measurement, HT-29; assay type: cell-based, human; conditions: HT-29, 0.1 and 1 mM, normoxic and hypoxic, Figure 7
Description: (§2) The high expression of CA IX plays an important role in the maintenance of the tumor cell microenvironment, and inhibiting its activity might have a potential impact on the pH of the tumor microenvironment. To evaluate the effect of compounds on the pH of the microenvironment, the pH values under normoxic and hypoxic conditions were determined in the presence of compounds 14b, 14h, and 14p. […] In addition, this improvement in pH was dose-dependent.
(§3) The measurement of the change of extracellular pH referred to the reported literature. In brief, cancer cells were incubated for 12 h. After removing the medium, fresh medium was added to the plates and then incubated for 48 h under hypoxia or normoxia. The pH of the medium was measured immediately. The tested compounds were dissolved in DMSO and diluted with culture medium to the desired concentration. After the addition of tested compounds, the same procedure was repeated.

[2] = system: breast adenocarcinoma MDA-MB-231 cells; assay: CCK-8 cell viability assay, MDA-MB-231; assay type: cell-based, human; conditions: MDA-MB-231, normoxic and hypoxic, 48 h, Figure 5
Description: as §1

MDA-MB-231 = assay: Extracellular pH measurement, MDA-MB-231; assay type: cell-based, human; conditions: MDA-MB-231, 0.1 and 1 mM, normoxic and hypoxic, Figure 7
Description: as §2, §3

hCA XII = hCA XII (Homo sapiens, UniProt O43570); assay: hCA XII enzyme inhibition assay (4-NPA hydrolysis)
Description: as §4

human osteosarcoma MG-63 = assay: CCK-8 cell viability assay, MG-63; assay type: cell-based; conditions: hypoxic conditions
Description: Then, considering the high inhibitory activity of 14a on the two isoforms of CA IX and XII, we evaluated the inhibitory activity of 14a on human osteosarcoma MG-63 featuring high expression of CA IX and XII.
as §1

Sequence of hCA XII (O43570 25-354): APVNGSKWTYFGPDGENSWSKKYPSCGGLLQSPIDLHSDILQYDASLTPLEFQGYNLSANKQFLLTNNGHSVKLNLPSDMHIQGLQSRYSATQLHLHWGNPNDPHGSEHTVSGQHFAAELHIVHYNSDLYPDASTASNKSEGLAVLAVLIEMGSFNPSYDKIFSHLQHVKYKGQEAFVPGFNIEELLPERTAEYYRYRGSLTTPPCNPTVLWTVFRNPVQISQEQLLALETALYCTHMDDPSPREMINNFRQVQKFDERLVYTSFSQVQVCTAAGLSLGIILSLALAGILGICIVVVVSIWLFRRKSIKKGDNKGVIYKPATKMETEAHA

| Compound | IC50 (hCA IX) [nM] | inhibitory activity on cell viability compared with AZM [1] | IC50 (hCA II) [nM] | effect on extracellular (tumor) pH (HT-29) | inhibitory activity on cell viability compared with AZM [2] | effect on extracellular (tumor) pH (MDA-MB-231) | IC50 (hCA XII) [nM] | effect on MG-63 viability compared with AZM (human osteosarcoma MG-63) | reduction of viability of MG-63 cells (human osteosarcoma MG-63; 800 μM, 48 h) |
| --- | --- | --- | --- | --- | --- | --- | --- | --- | --- |
| COc1cc(C(=O)Nc2nnc(S(N)(=O)=O)s2)ccc1NC(=O)CCC(=O)N[C@@H]1O[C@H](CO)[C@@H](O)[C@H](O)[C@H]1O [Compound 14p, N^1-(2-Methoxy-4-((5-sulfamoyl-1,3,4-thiadiazol-2-yl)carbamoyl)phenyl)-N^4-((2R,3R,4S,5S,6R)-3,4,5-trihydroxy-6-(hydroxymethyl)tetrahydro-2H-pyran-2-yl)succinimide] | 47.9 ± 7.1 | better than those of the positive control drug AZM | 332 ± 16.8 | increased tumor pH to varying degrees | better than those of the positive control drug AZM | increased tumor pH to varying degrees | 42.3 ± 9.4 | – | – |
| COc1cc(C(=O)Nc2nnc(S(N)(=O)=O)s2)ccc1NC(=O)CCCC(=O)N[C@@H]1O[C@H](CO)[C@@H](O)[C@H](O)[C@H]1O [Compound 14h, N^1-(2-Methoxy-4-((5-sulfamoyl-1,3,4-thiadiazol-2-yl)carbamoyl)phenyl)-N^5-((2R,3R,4S,5S,6R)-3,4,5-trihydroxy-6-(hydroxymethyl)tetrahydro-2H-pyran-2-yl)glutaramide] | 68.8 ± 10.2 | better than those of the positive control drug AZM | 272 ± 9 | increased tumor pH to varying degrees | better than those of the positive control drug AZM | increased tumor pH to varying degrees | 84.9 ± 7.6 | – | – |
| NS(=O)(=O)c1nnc(NC(=O)c2ccc(NC(=O)CCCC(=O)N[C@@H]3O[C@H](CO)[C@@H](O)[C@H](O)[C@H]3O)cc2)s1 [Compound 14a, N^1-(4-((5-Sulfamoyl-1,3,4-thiadiazol-2-yl)carbamoyl)phenyl)-N^5-((2R,3R,4S,5S,6R)-3,4,5-trihydroxy-6-(hydroxymethyl)tetrahydro-2H-pyran-2-yl)glutaramide] | 29 ± 4.2 | better than those of the positive control drug AZM | 141 ± 12.9 | – | better than those of the positive control drug AZM | – | 141 ± 5.5 | significantly better than that of the positive control AZM | approximately 30% |
| NS(=O)(=O)c1nnc(NC(=O)c2cccc(NC(=O)CCCC(=O)N[C@@H]3O[C@H](CO)[C@@H](O)[C@H](O)[C@H]3O)c2)s1 [Compound 14b, N^1-(3-((5-Sulfamoyl-1,3,4-thiadiazol-2-yl)carbamoyl)phenyl)-N^5-((2R,3R,4S,5S,6R)-3,4,5-trihydroxy-6-(hydroxymethyl)tetrahydro-2H-pyran-2-yl)glutaramide] | 29 ± 1.5 | better than those of the positive control drug AZM | 80.3 ± 11.5 | increased tumor pH to varying degrees | better than those of the positive control drug AZM | increased tumor pH to varying degrees | 56 ± 8.5 | – | – |

— paper PMC8196973, “Synthesis, Molecular Docking Analysis and Biological Evaluations of Saccharide-Modified Thiadiazole Sulfonamide Derivatives” (International Journal of Molecular Sciences, 2021)
